From patent US20050220900A1, “Use of extracts containing phytoestrogen selectively modulating estrogen-receptor-beta” (priority 2002, published 2005)

Experiments:
[1] = tested on: human granulosa/luteal cells; experiment: progesterone secretion of human granulosa/luteal cells; type: cell-based; details: 5-hour incubation, 1 μM
Source text: Luteal cell cultures are an established test method for the paracrine effect of steroids. Such cells are not available from humans, since all surgical procedures in which biopsies can be taken are always performed at the follicular phase to avoid the risk of an undetected pregnancy. However, these granulosa/luteal cells become available in the course of in vitro fertilization programs and are maintained in culture, and they behave very much like luteal cells in terms of receptor population and secretory function. An estrogenic effect of vitex agnus castus was tested with this human in vitro testing system. […] FIG. 5: […] The * indicates a significant deviation from the (culture) medium control. FIG. 6 summarizes the effect of vitex agnus castus extracts upon progesterone secretion under this testing system after a 5-hour incubation.

[2] = tested on: porcine luteal cells; experiment: progesterone secretion of porcine luteal cells; type: cell-based; details: anti-estrogen alone
Protocol: To reinforce this conclusion, the cells were incubated with vitex agnus castus extract along with the anti-estrogen tamoxifen.

| SMILES | effect on progesterone secretion [1] | effect on progesterone excretion, tamoxifen alone [2] |
| --- | --- | --- |
| C[C@]12CC[C@@H]3c4ccc(O)cc4CC[C@H]3[C@@H]1CC[C@H]2O [17-alpha estradiol, estradiol 17-alpha] | no effect |  |
| CC/C(=C(\c1ccccc1)c1ccc(OCCN(C)C)cc1)c1ccccc1 [tamoxifen] |  | without effect |
